Tests used:
[1] = test system: BxPC3 human pancreatic cancer cells; assay: Pancreatic cancer BxPC3 subcutaneous model, tumor volume; assay type: in vivo, nude mice; details: day 70; gemcitabine 100 mg/kg i.p. q3 day; Compounds A, B 5 mg/kg s.c. bid, 10 mg/kg from day 56
Method: A study was conducted to evaluate the anti-cancer activity of Compound A and Compound B in a mouse model of pancreatic cancer. Human pancreatic cancer cells, BxPC3, were implanted subcutaneously (1×10^6 cells in 100 μL Matrigel) in 6 week old female nude mice (5 mice per group). Treatment began on day 7 after implantation, with either gemcitabine (100 mg/kg i.p. q3 day), Compound A (5 mg/kg s.c. bid), or Compound B (5 mg/kg s.c. bid). Tumor volume was measured with calipers each week. On day 56 the dose of both Compound A and B were increased to 10 mg/kg s.c. bid. At day 70 animals were sacrificed and tumors resected, fixed, and stored for further testing.

P-selectin = assay: P-selectin-mediated HL-60 cell binding to immobilized P-selectin/Fc chimera; assay type: cell-based; details: HL-60 cells, best-fit values
Method: 96 well plates were coated with 10 μg/mL Protein A overnight, then blocked with 2% FBS for 1 hour. 2 μg/mL P-selectin/Fc chimera was bound to the Protein A for 3 hours at 4° C. HL-60 cells (2e5 cells/well, CMFDA labeled) were then layered onto the P-selectin and allowed to bind for 1 hour at room temperature. Wells were treated concurrently with test samples to determine inhibitory binding activity. After 1 hour, unbound cells were washed and bound cells lysed in a 1% Triton-X solution and read on a Fluorimeter at 480/520 nm.

Row | Compound | reduction of tumor volume [1] | P-sel IC50 (P-selectin)
1 | Nc1ccn([C@@H]2O[C@H](CO)[C@@H](O)C2(F)F)c(=O)n1 [Gemcitabine, gemcitabine] | approximately 58% | –
2 | enoxaparin | – | 64.72 µg/mL

Reference: patent US20250360161A1, “CHEMICALLY MODIFIED HEPARIN” (IHP Therapeutics Inc., priority 2022, published 2025)
